Measurements as given in US6914045B2, “Glycopeptide antibiotics” (Wyeth Holdings Corporation, priority 2001, dated 2005).
≈ marks a conversion by molar mass, not a printed value.

Tests used:
Assay in all cases: in vitro antibacterial evaluation, MIC by broth dilution
Assay type in all cases: cell-based
Conditions in all cases: broth dilution, 18 hours at 35° C.
Escherichia coli = test system: Escherichia coli
In short: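 MIC is the lowest antibiotic concentration (tested 64-0.06 μg/mL) preventing growth of a 5×10^5 CFU/mL inoculum. Determined by broth dilution in Mueller-Hinton II medium following NCCLS standard M7-A2.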

Enterococcus sp. = test system: Enterococcus sp.
In short: (§1)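 Step 1: dilute antibiotic across 64-0.06 μg/mL in Muller-Hinton II […]. Step 2: inoculate at 5×10^5 CFU/mL.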

Streptococcus sp. = test system: Streptococcus sp.
In short: as §1

Staphylococcus sp. = test system: Staphylococcus sp.
In short: as §1

## CC(c1ccccc1)C1NC(=O)CNC(=O)C(CO)NC(=O)C(C(O)C2CNC(=N)N2C2OC(CO)C(O)C(O)C2O)NC(=O)C(C(O)C2CNC(=N)N2)NC(=O)C(Cc2ccc3oc(SCc4ccc(-c5ccccc5)cc4)nc3c2)NC1=O (stereo not shown) [Example 47]
Escherichia coli; strain ATCC 25922
  MIC Escherichia coli (ATCC 25922): >64 µg/mL
Escherichia coli; strain GC 4559
  MIC Escherichia coli (GC 4559): >64 µg/mL
Escherichia coli; strain GC 4560
  MIC Escherichia coli (GC 4560): 32 µg/mL (≈ 26.8 µM)
Enterococcus sp.; strain ATCC 29212
  MIC Enterococcus faecalis (ATCC 29212): 8 µg/mL (≈ 6.7 µM)
Enterococcus sp.; strain GC 2242
  MIC Enterococcus faecalis (GC 2242): 4 µg/mL (≈ 3.35 µM)
Enterococcus sp.; strain GC 2243
  MIC Enterococcus faecium (GC 2243): 4 µg/mL (≈ 3.35 µM)
Enterococcus sp.; strain GC 2691
  MIC Enterococcus faecalis (GC 2691): 32 µg/mL (≈ 26.8 µM)
Enterococcus sp.; strain GC 3059
  MIC Enterococcus faecalis (GC 3059): 32 µg/mL (≈ 26.8 µM)
Enterococcus sp.; strain GC 4552
  MIC Enterococcus faecalis (GC 4552): 16 µg/mL (≈ 13.4 µM)
Enterococcus sp.; strain GC 4553
  MIC Enterococcus faecalis (GC 4553): 4 µg/mL (≈ 3.35 µM)
Enterococcus sp.; strain GC 4554
  MIC Enterococcus faecalis (GC 4554): 64 µg/mL (≈ 53.6 µM)
Enterococcus sp.; strain GC 4556
  MIC Enterococcus faecium (GC 4556): 8 µg/mL (≈ 6.7 µM)
Enterococcus sp.; strain GC 4557
  MIC Enterococcus faecium (GC 4557): 4 µg/mL (≈ 3.35 µM)
Enterococcus sp.; strain GC 4558
  MIC Enterococcus avium (GC 4558): 2 µg/mL (≈ 1.67 µM)
Enterococcus sp.; strain GC 6189
  MIC Enterococcus faecalis (GC 6189): 32 µg/mL (≈ 26.8 µM)
Streptococcus sp.; strain ATCC 6301
  MIC Streptococcus pneumoniae (ATCC 6301): 4 µg/mL (≈ 3.35 µM)
Streptococcus sp.; strain GC 1894
  MIC Streptococcus pneumoniae (GC 1894): 2 µg/mL (≈ 1.67 µM)
Streptococcus sp.; strain GC 4563
  MIC Streptococcus pyogenes (GC 4563): 1 µg/mL (≈ 0.837 µM)
Streptococcus sp.; strain GC 4564
  MIC Streptococcus agalactiae (GC 4564): 2 µg/mL (≈ 1.67 µM)
Streptococcus sp.; strain GC 4565
  MIC Streptococcus pneumoniae (GC 4565): 8 µg/mL (≈ 6.7 µM)
Staphylococcus sp.; strain ATCC 29213
  MIC Staphylococcus aureus (ATCC 29213): 16 µg/mL (≈ 13.4 µM)
Staphylococcus sp.; strain GC 1131
  MIC Staphylococcus aureus (GC 1131): 32 µg/mL (≈ 26.8 µM)
Staphylococcus sp.; strain GC 3051
  MIC Staphylococcus aureus (GC 3051): 32 µg/mL (≈ 26.8 µM)
Staphylococcus sp.; strain GC 3053
  MIC Staphylococcus aureus (GC 3053): 16 µg/mL (≈ 13.4 µM)
Staphylococcus sp.; strain GC 4541
  MIC Staphylococcus aureus (GC 4541): 16 µg/mL (≈ 13.4 µM)
Staphylococcus sp.; strain GC 4542
  MIC Staphylococcus aureus (GC 4542): 16 µg/mL (≈ 13.4 µM)
Staphylococcus sp.; strain GC 4543
  MIC Staphylococcus aureus-SMITH (GC 4543): 8 µg/mL (≈ 6.7 µM)
Staphylococcus sp.; strain GC 4544
  MIC Staphylococcus aureus (GC 4544): 16 µg/mL (≈ 13.4 µM)
Staphylococcus sp.; strain GC 4545
  MIC Staphylococcus aureus (GC 4545): 16 µg/mL (≈ 13.4 µM)
Staphylococcus sp.; strain GC 4546
  MIC Staphylococcus haemolyticus (GC 4546): 8 µg/mL (≈ 6.7 µM)
Staphylococcus sp.; strain GC 4547
  MIC Coagulase Negative Staphylococcus (GC 4547): 16 µg/mL (≈ 13.4 µM)
Staphylococcus sp.; strain GC 4548
  MIC Coagulase Negative Staphylococcus (GC 4548): 2 µg/mL (≈ 1.67 µM)
Staphylococcus sp.; strain GC 4549
  MIC Coagulase Negative Staphylococcus (GC 4549): 0.5 µg/mL (≈ 0.419 µM)
Staphylococcus sp.; strain GC 4551
  MIC Coagulase Negative Staphylococcus (GC 4551): 8 µg/mL (≈ 6.7 µM)
